According to the supplement of paper PMC4862054:

Experiments:
Conditions in all cases: 72 h
CAL-51 [1] = tested on: CAL-51
In short: (§1)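 The plates used were 384-well plates holding compound at 5 concentrations in 10-fold steps across a compound-specific 10,000-fold range, into which breast cancer cell lines were seeded in 20 µl suspension. Following 72 h incubation, CellTox Green fluorescence was read at 485/520 nm, and CellTiter-Glo luminescence was read after 10 min at room temperature. Normalisation on each plate used 0.1 % DMSO and a positive kill control. Dose-response curves gave the EC50, which was censored at the top concentration.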

HCC1599 [2] = tested on: HCC1599
In short: as §1

BT-549 [3] = tested on: BT-549
In short: as §1

BT-474 [4] = tested on: BT-474
In short: as §1

HCC1937 [5] = tested on: HCC1937
In short: as §1

Hs578T [6] = tested on: Hs578T
In short: as §1

MFM-223 [7] = tested on: MFM-223
In short: as §1

CAL-85-1 [8] = tested on: CAL-85-1
In short: as §1

CAL-148 [9] = tested on: CAL-148
In short: as §1

MDA-MB-231 [10] = tested on: MDA-MB-231
In short: as §1

DU-4475 [11] = tested on: DU-4475
In short: as §1

CAL-120 [12] = tested on: CAL-120
In short: as §1

MDA-MB-436 [13] = tested on: MDA-MB-436
In short: as §1

MDA-MB-468 [14] = tested on: MDA-MB-468
In short: as §1

HCC1143 [15] = tested on: HCC1143
In short: as §1

SK-BR-3 [16] = tested on: SK-BR-3
In short: as §1

HDQ-P1 [17] = tested on: HDQ-P1
In short: as §1

CAL-51 [18] = tested on: CAL-51; remark: listed apart in the source
In short: (§2)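 Breast cancer cell lines in 20 µl suspension were seeded onto 384-well plates that already held compound dissolved in 5 µl medium and were incubated for 72 h. Viability was measured by adding 2.5 µl CellTiter-Blue for 2 h at 37 °C and reading fluorescence at 560/590 nm. Each plate was normalised to vehicle and a positive kill control and checked by Z'-factor. EC50 was taken from a fitted percent-inhibition dose-response curve, censored at the highest concentration, and rows with a drug sensitivity score of zero were removed.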

MDA-MB-453 = tested on: MDA-MB-453
In short: as §2

CAL-85-1 [19] = tested on: CAL-85-1; remark: listed apart in the source
In short: as §2

CAL-148 [20] = tested on: CAL-148; remark: listed apart in the source
In short: as §2

DU-4475 [21] = tested on: DU-4475; remark: listed apart in the source
In short: as §2

HDQ-P1 [22] = tested on: HDQ-P1; remark: listed apart in the source
In short: as §2

HCC1599 [23] = tested on: HCC1599; remark: listed apart in the source
In short: as §2

BT-549 [24] = tested on: BT-549; remark: listed apart in the source
In short: as §2

BT-474 [25] = tested on: BT-474; remark: listed apart in the source
In short: as §2

HCC1937 [26] = tested on: HCC1937; remark: listed apart in the source
In short: as §2

Hs578T [27] = tested on: Hs578T; remark: listed apart in the source
In short: as §2

MFM-223 [28] = tested on: MFM-223; remark: listed apart in the source
In short: as §2

MDA-MB-231 [29] = tested on: MDA-MB-231; remark: listed apart in the source
In short: as §2

CAL-120 [30] = tested on: CAL-120; remark: listed apart in the source
In short: as §2

MDA-MB-436 [31] = tested on: MDA-MB-436; remark: listed apart in the source
In short: as §2

MDA-MB-468 [32] = tested on: MDA-MB-468; remark: listed apart in the source
In short: as §2

HCC1143 [33] = tested on: HCC1143; remark: listed apart in the source
In short: as §2

SK-BR-3 [34] = tested on: SK-BR-3; remark: listed apart in the source
In short: as §2

CAL-51 [35] = tested on: CAL-51; remark: listed apart in the source
Experimental: (§3)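 Drug sensitivity and resistance testing (DSRT) of breast cancer cell lines in 384-well plates, 5 concentrations in 10-fold dilutions over a compound-specific 10,000-fold range. After 72 h, cytotoxicity was read by CellTox Green fluorescence and viability by CellTiter-Glo luminescence (multiplexed), normalised to DMSO and benzethonium chloride controls. EC50 is the inflection point of the fitted dose-response curve (bottom asymptote free, so it can be relative for partial curves) and is censored at the highest tested concentration. Rows with DSS 0 (no meaningful response) were excluded.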

HCC1599 [36] = tested on: HCC1599; remark: listed apart in the source
Experimental: as §3

HCC1937 [37] = tested on: HCC1937; remark: listed apart in the source
Experimental: as §3

Hs578T [38] = tested on: Hs578T; remark: listed apart in the source
Experimental: as §3

MFM-223 [39] = tested on: MFM-223; remark: listed apart in the source
Experimental: as §3

CAL-85-1 [40] = tested on: CAL-85-1; remark: listed apart in the source
Experimental: as §3

CAL-148 [41] = tested on: CAL-148; remark: listed apart in the source
Experimental: as §3

MDA-MB-231 [42] = tested on: MDA-MB-231; remark: listed apart in the source
Experimental: as §3

DU-4475 [43] = tested on: DU-4475; remark: listed apart in the source
Experimental: as §3

CAL-120 [44] = tested on: CAL-120; remark: listed apart in the source
Experimental: as §3

MDA-MB-468 [45] = tested on: MDA-MB-468; remark: listed apart in the source
Experimental: as §3

HDQ-P1 [46] = tested on: HDQ-P1; remark: listed apart in the source
Experimental: as §3

EC50, CellTiter-Glo (HCC1599 [2]): 176 nM | EC50, CellTiter-Glo (BT-549 [3]): 359 nM | EC50, CellTiter-Glo (BT-474 [4]): 888 nM | EC50, CellTiter-Glo (HCC1937 [5]): 2710 nM | EC50, CellTiter-Glo (MDA-MB-231 [10]): 1910 nM | EC50, CellTiter-Glo (MDA-MB-436 [13]): 204 nM | EC50, CellTiter-Glo (MDA-MB-468 [14]): 614 nM | EC50, CellTiter-Glo (HCC1143 [15]): 842 nM | EC50, CellTiter-Glo (SK-BR-3 [16]): 138 nM | EC50, CellTiter-Blue viability (MDA-MB-453): 1840 nM | EC50, CellTiter-Blue viability (HCC1599 [23]): 1740 nM | EC50, CellTiter-Blue viability (BT-549 [24]): 1510 nM | EC50, CellTiter-Blue viability (BT-474 [25]): 5940 nM | EC50, CellTiter-Blue viability (HCC1937 [26]): 103 nM | EC50, CellTiter-Blue viability (MDA-MB-231 [29]): 2180 nM | EC50, CellTiter-Blue viability (MDA-MB-436 [31]): 1180 nM | EC50, CellTiter-Blue viability (MDA-MB-468 [32]): 1080 nM | EC50, CellTiter-Blue viability (HCC1143 [33]): 829 nM | EC50, CellTiter-Blue viability (SK-BR-3 [34]): 91.7 nM
Compound: COc1cc([C@@H]2c3cc4c(cc3[C@@H](O[C@@H]3O[C@@H]5CO[C@@H](c6cccs6)O[C@H]5[C@H](O)[C@H]3O)[C@H]3COC(=O)[C@H]23)OCO4)cc(OC)c1O [Teniposide]
EC50, CellTiter-Glo (CAL-51 [1]): 666 nM | EC50, CellTiter-Glo (Hs578T [6]): 2060 nM | EC50, CellTiter-Glo (MFM-223 [7]): 1740 nM | EC50, CellTiter-Glo (CAL-85-1 [8]): 1180 nM | EC50, CellTiter-Glo (CAL-148 [9]): 393 nM | EC50, CellTiter-Glo (DU-4475 [11]): 184 nM | EC50, CellTiter-Glo (CAL-120 [12]): 2690 nM | EC50, CellTiter-Glo (HDQ-P1 [17]): 5210 nM | EC50, CellTiter-Blue viability (CAL-51 [18]): 75.8 nM | EC50, CellTiter-Blue viability (CAL-85-1 [19]): 1450 nM | EC50, CellTiter-Blue viability (CAL-148 [20]): 220 nM | EC50, CellTiter-Blue viability (DU-4475 [21]): 37.1 nM | EC50, CellTiter-Blue viability (HDQ-P1 [22]): 1700 nM | EC50, CellTiter-Blue viability (Hs578T [27]): 3830 nM | EC50, CellTiter-Blue viability (MFM-223 [28]): 1850 nM | EC50, CellTiter-Blue viability (CAL-120 [30]): 999 nM | EC50, CellTox Green (CAL-51 [35]): 879 nM | EC50, CellTox Green (HCC1599 [36]): 350 nM | EC50, CellTox Green (HCC1937 [37]): 100 nM | EC50, CellTox Green (Hs578T [38]): 4000 nM | EC50, CellTox Green (MFM-223 [39]): 835 nM | EC50, CellTox Green (CAL-85-1 [40]): 2390 nM | EC50, CellTox Green (CAL-148 [41]): 10.7 nM | EC50, CellTox Green (MDA-MB-231 [42]): 1190 nM | EC50, CellTox Green (DU-4475 [43]): 1620 nM | EC50, CellTox Green (CAL-120 [44]): 4090 nM | EC50, CellTox Green (MDA-MB-468 [45]): 4760 nM | EC50, CellTox Green (HDQ-P1 [46]): 2380 nM
